{"source": "patent US12311019B2", "about": "“Vaccine composition and uses thereof” (Imugene Limited, priority 2018, dated 2025)", "key": {"[1]": {"test_system": "PD1 protein from other species—mouse, rat, Rhesus monkey, Cynomolgus monkey and canine", "test": "Cross-reactivity ELISAs, summary over species", "type": "binding", "settings": "for cross-reactivity of affinity-purified anti-PD1 antibodies from animals immunised with the peptide with PD1 protein from other species: mouse, rat, Rhesus monkey, Cynomolgus monkey and canine", "description": "To assess whether or not the anti-human PD1 antibodies raised in the immunised rabbits would cross-react with PD1 of other species, the anti-PD1 antisera from the Examples 7 and 8, above, were screened in an ELISA assay for binding to mouse, rhesus monkey, canine and rat PD1 proteins.\nA further ELISA assay was performed to make a direct comparison of the cross-reactivity of anti-human PD1 antibodies raised in the immunised rabbits (Rabbits 1 and 2) to PD1 proteins of different species."}, "[2]": {"target": "PD1 (SEQ ID NO:1) conjugated to a His tag (Homo sapiens, UniProt Q15116)", "sequence (Q15116 25-170)": "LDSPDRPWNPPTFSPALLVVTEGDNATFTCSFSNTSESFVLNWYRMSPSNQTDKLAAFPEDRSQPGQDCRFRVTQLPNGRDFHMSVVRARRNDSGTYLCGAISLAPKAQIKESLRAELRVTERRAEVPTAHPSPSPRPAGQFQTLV", "test": "ELISA of anti-PD1 antibody titre in immunised rabbits on PD1 coated plates", "type": "binding", "settings": "rabbits immunised with KLH-conjugated peptide in Freund's adjuvant", "description": "Approximately 250-500 μg of each KLH-conjugated peptide fragment was diluted with saline and subsequently emulsified in complete or incomplete Freund's adjuvant at a mass ratio of 1:1. The emulsified solution was administered to rabbits by subcutaneous injection around the shoulders and intramuscular injection into the legs in accordance with the following immunization protocol: • i. Day 00—Serum collected 2 ml (for 0.5-1.0 ml pre-immune serum; • ii. Day 01—1st-immunization, complete Freund's adjuvant, 500 μg peptide fragment; • iii. Day 15—2nd-immunization, complete Freund's adjuvant, 500 μg peptide fragment; • iv. Day 29—3rd-immunization, incomplete Freund's adjuvant, 250 μg peptide fragment; • v. Day 35—Serum collected, 2-3 ml for assessment of anti-PD1 antibody titre by ELISA; • vi. Day 36—4th-immunization, incomplete Freund's adjuvant, 250 μg peptide fragment (optional); • vii. Day 43—5th-immunization, incomplete Freund's adjuvant. 250 μg peptide fragment (optional); • viii. Day 50—6th-immunization, incomplete Freund's adjuvant 250 μg peptide fragment (optional); • ix. Day 57—7th-immunization, incomplete Freund's adjuvant 250 μg peptide fragment (optional); • x. Day 63—Blood sample is collected from the immunised rabbits. B. Assessment of Anti-PDJ Antibody Titre in Immunised Rabbits by ELISA\nAn enzyme-linked immunosorbent assays (ELISA) was used to measure the anti-PD1 antibody titre in the blood samples collected from the immunized rabbits. Briefly, microtiter plates were coated with PD1 (SEQ ID NO:1) conjugated to a His tag. After blocking the wells of the microtiter plates with BSA to minimise non-specific binding, diluted sera from the immunized rabbits were added to the plates and incubated on a shaker for around 1 hr at 20° C. (or alternatively overnight at 4° C.). The plates were then washed four times with PBS/0.1% v/v Tween 20 and excess wash buffer was removed from each well.\nApproximately 100 μL of a horseradish peroxidase-labeled anti-rabbit antibody was then added to each well and incubated for around 1 hr at 20° C. The plates were then washed four times with PBS/0.1% v/v Tween 20 and excess wash buffer was removed from each well. The plates were then washed twice with PBS only, to remove traces of Tween remaining from the washing buffer.\nTo detect the presence of horseradish peroxidase-labeled, anti-rabbit antibody, 100 μL of 1-Step™ ABTS (Pierce Cat. No. 37615) was added to each well and incubated for up to 45 min at 20° C. The absorbance of any colour change in each well was read using a microtitre Titertek Multiskan MC plate reader in the dual wavelength mode at 405 nm against a reference wavelength of 492 nm and compared to appropriate negative controls, such as the colour change observed in a well to which no PD1 was added, to which no immunised rabbit sera was added and/or to which no horseradish peroxidase-labeled, anti-rabbit antibody was added.\nApproximately 250-500 μg of each KLH-conjugated fusion peptides were diluted with saline and subsequently emulsified in complete or incomplete Freund's adjuvant at a mass ratio of 1:1. The emulsified solutions were administered to rabbits by subcutaneous injection around the shoulders and intramuscular injection into the legs in accordance with the immunization protocol of Example 2, above.\nAn enzyme-linked immunosorbent assays (ELISA) was used to measure the anti-PD1 antibody titre in the blood samples collected from the immunized rabbits, in accordance with the methodology set out in Example 2 above. The absorbance readings from the ELISA assay are shown in Table 8, below (SEQ TD NO:9 is underlined): […]"}}, "note": "“Also recorded” adds a separate entry of the source."}
{"sequence": "LRVTERRAEVPT (listed as Homo sapiens) [SEQ ID NO:49]", "values": [{"measurement": "species of greatest cross-reactivity of the anti-PD1 antibodies raised with the peptide", "setting": "[1]", "result": "greatest cross-reactivity to PD1 protein from Rhesus and Cynomolgus monkeys"}, {"measurement": "cross-reactivity of affinity-purified anti-PD1 antibodies from animals immunised with the peptide with PD1 protein from other species", "setting": "[1]", "result": "at least some cross-reactivity"}, {"measurement": "anti-PD1 antibody response / titre raised in immunised rabbits (in words)", "setting": "[2]", "result": "raising an anti-PD1 antibody response; also recorded: sufficient anti-PD1 antibody titres"}]}
{"sequence": "GAISLAPKAQIK (listed as Homo sapiens) [SEQ ID NO:43]", "values": [{"measurement": "species of greatest cross-reactivity of the anti-PD1 antibodies raised with the peptide", "setting": "[1]", "result": "greatest cross-reactivity to PD1 protein from Rhesus and Cynomolgus monkeys"}, {"measurement": "cross-reactivity of affinity-purified anti-PD1 antibodies from animals immunised with the peptide with PD1 protein from other species", "setting": "[1]", "result": "at least some cross-reactivity"}, {"measurement": "anti-PD1 antibody response / titre raised in immunised rabbits (in words)", "setting": "[2]", "result": "raising an anti-PD1 antibody response; also recorded: sufficient anti-PD1 antibody titres"}]}
{"sequence": "GWFLDSPDRPWNGAISLAPKAQIK (listed as Homo sapiens) [SEQ ID NO:56]", "values": [{"measurement": "species of greatest cross-reactivity of the anti-PD1 antibodies raised with the peptide", "setting": "[1]", "result": "greatest cross-reactivity to PD1 protein from Rhesus and Cynomolgus monkeys"}, {"measurement": "cross-reactivity of affinity-purified anti-PD1 antibodies from animals immunised with the peptide with PD1 protein from other species", "setting": "[1]", "result": "at least some cross-reactivity"}, {"measurement": "anti-PD1 antibody response / titre raised in immunised rabbits (in words)", "setting": "[2]", "result": "Anti-PD1 antibodies were also raised"}]}
{"sequence": "NWYRMSPSNQTD (listed as Homo sapiens) [SEQ ID NO:59]", "values": [{"measurement": "species of greatest cross-reactivity of the anti-PD1 antibodies raised with the peptide", "setting": "[1]", "result": "greatest cross-reactivity to PD1 protein from Rhesus and Cynomolgus monkeys"}, {"measurement": "cross-reactivity of affinity-purified anti-PD1 antibodies from animals immunised with the peptide with PD1 protein from other species", "setting": "[1]", "result": "at least some cross-reactivity"}, {"measurement": "anti-PD1 antibody response / titre raised in immunised rabbits (in words)", "setting": "[2]", "result": "raising an anti-PD1 antibody response; also recorded: sufficient anti-PD1 antibody titres"}]}
{"sequence": "GAISLAPKAQIKGWFLDSPDRPWN (listed as Homo sapiens) [SEQ ID NO:57]", "values": [{"measurement": "species of greatest cross-reactivity of the anti-PD1 antibodies raised with the peptide", "setting": "[1]", "result": "greatest cross-reactivity to PD1 protein from Rhesus and Cynomolgus monkeys"}, {"measurement": "cross-reactivity of affinity-purified anti-PD1 antibodies from animals immunised with the peptide with PD1 protein from other species", "setting": "[1]", "result": "at least some cross-reactivity"}, {"measurement": "anti-PD1 antibody response / titre raised in immunised rabbits (in words)", "setting": "[2]", "result": "Anti-PD1 antibodies were also raised"}]}
{"sequence": "FSPALLVVTEGD (listed as Homo sapiens) [SEQ ID NO:14]", "values": [{"measurement": "species of greatest cross-reactivity of the anti-PD1 antibodies raised with the peptide", "setting": "[1]", "result": "greatest cross-reactivity to PD1 protein from Rhesus and Cynomolgus monkeys"}, {"measurement": "cross-reactivity of affinity-purified anti-PD1 antibodies from animals immunised with the peptide with PD1 protein from other species", "setting": "[1]", "result": "at least some cross-reactivity"}, {"measurement": "anti-PD1 antibody response / titre raised in immunised rabbits (in words)", "setting": "[2]", "result": "raising an anti-PD1 antibody response; also recorded: sufficient anti-PD1 antibody titres"}]}
{"sequence": "FPEDRSQPGQDC (listed as Homo sapiens) [SEQ ID NO:29]", "values": [{"measurement": "species of greatest cross-reactivity of the anti-PD1 antibodies raised with the peptide", "setting": "[1]", "result": "greatest cross-reactivity to PD1 protein from Rhesus and Cynomolgus monkeys"}, {"measurement": "cross-reactivity of affinity-purified anti-PD1 antibodies from animals immunised with the peptide with PD1 protein from other species", "setting": "[1]", "result": "at least some cross-reactivity"}, {"measurement": "anti-PD1 antibody response / titre raised in immunised rabbits (in words)", "setting": "[2]", "result": "raising an anti-PD1 antibody response; also recorded: sufficient anti-PD1 antibody titres"}]}
{"sequence": "LDSPDRPWNPPT (listed as Homo sapiens) [SEQ ID NO:10]", "values": [{"measurement": "species of greatest cross-reactivity of the anti-PD1 antibodies raised with the peptide", "setting": "[1]", "result": "greatest cross-reactivity to PD1 protein from Rhesus and Cynomolgus monkeys"}, {"measurement": "cross-reactivity of affinity-purified anti-PD1 antibodies from animals immunised with the peptide with PD1 protein from other species", "setting": "[1]", "result": "at least some cross-reactivity"}, {"measurement": "anti-PD1 antibody response / titre raised in immunised rabbits (in words)", "setting": "[2]", "result": "raising an anti-PD1 antibody response; also recorded: sufficient anti-PD1 antibody titres"}]}
{"sequence": "YLSGAISLAPKA (listed as Homo sapiens) [SEQ ID NO:61]", "values": [{"measurement": "species of greatest cross-reactivity of the anti-PD1 antibodies raised with the peptide", "setting": "[1]", "result": "greatest cross-reactivity to PD1 protein from Rhesus and Cynomolgus monkeys"}, {"measurement": "cross-reactivity of affinity-purified anti-PD1 antibodies from animals immunised with the peptide with PD1 protein from other species", "setting": "[1]", "result": "at least some cross-reactivity"}, {"measurement": "anti-PD1 antibody response / titre raised in immunised rabbits (in words)", "setting": "[2]", "result": "raising an anti-PD1 antibody response; also recorded: sufficient anti-PD1 antibody titres"}]}
